These results are taken from ChEMBL document CHEMBL2331529, “Design and Synthesis of Potent Bivalent Peptide Agonists Targeting the EphA2 Receptor” (ACS Med Chem Lett, 2013).

The target in test [1] is Ephrin type-A receptor 2 (Homo sapiens, UniProt P29317). Briefly: Agonist activity at IgG1 Fc region fused-immobilized EphA2 ectodomain (unknown origin) assessed as inhibition of EphA2/ephrin-A5 AP interaction incubated for 3 hrs by ELISA. On the technique in general: ELISA stands for enzyme-linked immunosorbent assay.
Test [2] concerns the target Ephrin type-A receptor 4 (Homo sapiens) (UniProt P54764). Briefly: Agonist activity at IgG1 Fc region fused-immobilized EphA4 (unknown origin) assessed as inhibition of EphA4/ephrin-A5 AP interaction at 10 uM incubated for 3 hrs by ELISA.
In test [3] the target is T1, Ephrin type-B receptor 2 (Homo sapiens) (UniProt P29323).
T1 sequence (whole entry): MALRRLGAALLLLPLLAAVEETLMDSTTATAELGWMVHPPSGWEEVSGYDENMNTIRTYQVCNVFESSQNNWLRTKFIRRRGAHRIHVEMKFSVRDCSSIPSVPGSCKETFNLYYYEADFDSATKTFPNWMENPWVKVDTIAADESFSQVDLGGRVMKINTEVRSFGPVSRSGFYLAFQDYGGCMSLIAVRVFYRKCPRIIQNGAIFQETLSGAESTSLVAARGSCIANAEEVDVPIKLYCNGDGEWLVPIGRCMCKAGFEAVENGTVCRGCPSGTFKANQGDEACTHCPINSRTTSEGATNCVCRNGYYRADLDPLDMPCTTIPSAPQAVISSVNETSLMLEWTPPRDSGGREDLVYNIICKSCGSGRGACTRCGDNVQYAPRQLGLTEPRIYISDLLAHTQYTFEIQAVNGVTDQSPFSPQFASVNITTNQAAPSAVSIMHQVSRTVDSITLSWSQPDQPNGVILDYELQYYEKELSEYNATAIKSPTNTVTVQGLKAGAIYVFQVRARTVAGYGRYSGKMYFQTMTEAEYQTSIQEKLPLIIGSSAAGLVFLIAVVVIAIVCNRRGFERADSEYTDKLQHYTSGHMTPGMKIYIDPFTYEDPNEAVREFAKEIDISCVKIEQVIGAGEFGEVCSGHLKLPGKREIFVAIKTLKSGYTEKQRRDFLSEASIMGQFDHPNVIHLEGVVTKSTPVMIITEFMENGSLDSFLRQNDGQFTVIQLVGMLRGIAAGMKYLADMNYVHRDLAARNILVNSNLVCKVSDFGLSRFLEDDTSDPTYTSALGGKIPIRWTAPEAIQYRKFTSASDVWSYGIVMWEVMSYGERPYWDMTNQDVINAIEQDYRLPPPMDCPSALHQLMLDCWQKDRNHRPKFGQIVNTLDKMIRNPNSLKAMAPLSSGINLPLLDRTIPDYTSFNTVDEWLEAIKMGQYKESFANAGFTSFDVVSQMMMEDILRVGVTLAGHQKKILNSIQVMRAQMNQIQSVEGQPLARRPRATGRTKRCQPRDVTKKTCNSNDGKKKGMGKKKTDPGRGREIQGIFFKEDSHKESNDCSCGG
Briefly: Agonist activity at IgG1 Fc region fused-immobilized EphB2 (unknown origin) assessed as inhibition of EphB2/ephrin-B2 AP interaction at 10 uM incubated for 3 hrs by ELISA.

The source made the active and inactive calls. No cut-off for these calls is given here.

By IC50 is commonly meant the point on the concentration scale where inhibition reaches its midpoint.

Chain of Ephrin type-A receptor 2 (P29317 whole entry, the tested form may be a part): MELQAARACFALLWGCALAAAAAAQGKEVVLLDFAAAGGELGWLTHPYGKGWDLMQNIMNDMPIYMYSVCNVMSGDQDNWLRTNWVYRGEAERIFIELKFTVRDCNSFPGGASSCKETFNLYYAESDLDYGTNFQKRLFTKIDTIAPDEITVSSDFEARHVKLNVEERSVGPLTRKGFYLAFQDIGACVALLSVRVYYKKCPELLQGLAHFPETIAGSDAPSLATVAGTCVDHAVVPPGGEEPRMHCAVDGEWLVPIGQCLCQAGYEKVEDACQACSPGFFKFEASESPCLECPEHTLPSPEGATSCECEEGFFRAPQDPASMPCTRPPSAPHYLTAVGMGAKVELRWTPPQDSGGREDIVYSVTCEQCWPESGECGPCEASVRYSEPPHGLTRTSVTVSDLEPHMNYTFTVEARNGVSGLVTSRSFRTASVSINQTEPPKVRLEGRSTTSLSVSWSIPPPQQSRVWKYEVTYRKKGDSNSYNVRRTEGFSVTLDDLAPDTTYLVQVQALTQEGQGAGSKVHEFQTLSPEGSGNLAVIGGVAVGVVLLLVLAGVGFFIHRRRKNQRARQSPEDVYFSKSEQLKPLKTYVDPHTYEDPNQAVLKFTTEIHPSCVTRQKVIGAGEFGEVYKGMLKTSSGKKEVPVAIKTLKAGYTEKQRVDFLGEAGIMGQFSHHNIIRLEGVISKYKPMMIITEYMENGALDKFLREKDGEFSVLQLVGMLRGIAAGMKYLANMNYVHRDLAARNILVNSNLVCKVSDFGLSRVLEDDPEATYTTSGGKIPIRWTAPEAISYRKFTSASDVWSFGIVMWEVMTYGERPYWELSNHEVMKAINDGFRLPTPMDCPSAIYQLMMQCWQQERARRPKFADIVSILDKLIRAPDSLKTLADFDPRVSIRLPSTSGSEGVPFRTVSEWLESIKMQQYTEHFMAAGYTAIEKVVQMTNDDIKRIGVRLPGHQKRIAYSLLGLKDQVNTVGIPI
Chain of Ephrin type-A receptor 4 (Homo sapiens) (P54764 whole entry, the tested form may be a part): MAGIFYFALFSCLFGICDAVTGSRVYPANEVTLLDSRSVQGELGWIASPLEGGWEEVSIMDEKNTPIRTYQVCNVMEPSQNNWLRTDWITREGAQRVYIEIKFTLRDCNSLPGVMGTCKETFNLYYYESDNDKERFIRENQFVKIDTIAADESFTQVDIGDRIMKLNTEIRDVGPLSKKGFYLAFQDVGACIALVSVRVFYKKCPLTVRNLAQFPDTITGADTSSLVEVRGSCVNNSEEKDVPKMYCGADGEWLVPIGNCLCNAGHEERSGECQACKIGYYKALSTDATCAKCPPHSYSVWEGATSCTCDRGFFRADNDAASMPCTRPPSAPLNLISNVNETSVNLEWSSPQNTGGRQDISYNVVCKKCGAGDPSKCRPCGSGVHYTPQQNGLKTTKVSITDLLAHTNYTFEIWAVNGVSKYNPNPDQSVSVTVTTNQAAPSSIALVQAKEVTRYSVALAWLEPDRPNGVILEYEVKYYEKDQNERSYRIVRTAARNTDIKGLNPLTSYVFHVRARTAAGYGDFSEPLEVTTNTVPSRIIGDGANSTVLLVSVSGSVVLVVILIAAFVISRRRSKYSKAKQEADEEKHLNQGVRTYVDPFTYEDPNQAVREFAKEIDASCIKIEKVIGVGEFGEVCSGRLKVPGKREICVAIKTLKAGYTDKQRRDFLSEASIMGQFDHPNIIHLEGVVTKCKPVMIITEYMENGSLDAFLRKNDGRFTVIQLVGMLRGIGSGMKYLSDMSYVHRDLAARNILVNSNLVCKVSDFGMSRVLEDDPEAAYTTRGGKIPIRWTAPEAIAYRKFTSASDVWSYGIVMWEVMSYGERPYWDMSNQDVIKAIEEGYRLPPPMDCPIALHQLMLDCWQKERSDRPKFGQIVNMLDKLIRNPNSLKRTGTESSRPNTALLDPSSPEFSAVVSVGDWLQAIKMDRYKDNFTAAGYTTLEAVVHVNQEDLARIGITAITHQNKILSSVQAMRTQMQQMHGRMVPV

H-SWLSYPGAVSYR-OH: the IC50 in test [1] is more than 100 µM.

As for H-SALAYPGAVSYR-OH, in test [1], the IC50 was not below 100 µM.

As for H-SWLAAPGAVSYR-OH, the IC50 in test [1] was not below 100 µM.

Consider `CC(C)C[C@H](NC(=O)[C@H](C)NC(=O)[C@H](Cc1ccc(O)cc1)NC(=O)[C@@H]1CCCN1C(=O)CNC(=O)[C@H](C)NC(=O)[C@@H](NC(=O)[C@H](CO)NC(=O)[C@H](Cc1ccc(O)cc1)NC(=O)[C@H](CCCNC(=N)N)NC(=O)[C@H](CCCCNC(=O)CCCCCN)NC(=O)[C@H](CCCNC(=N)N)NC(=O)[C@H](Cc1ccc(O)cc1)NC(=O)[C@H](CO)NC(=O)[C@@H](NC(=O)[C@H](C)NC(=O)CNC(=O)[C@@H]1CCCN1C(=O)[C@H](Cc1ccc(O)cc1)NC(=O)[C@H](C)NC(=O)[C@H](CC(C)C)NC(=O)[C@H](Cc1c[nH]c2ccccc12)NC(=O)[C@@H](N)CO)C(C)C)C(C)C)C(=O)N[C@@H](Cc1c[nH]c2ccccc12)C(=O)N[C@@H](CO)C(=O)O`, for which the inhibition entry in test [2] and in test [3] was “Active” each time.

With H-SWLAYAGAVSYR-OH, the IC50 in test [1] is not below 100 µM.
